The values that follow come from paper PMC4466645 (Oncotarget, 2015).

Each structure is given as a SMILES string.

Test [1] deals with NOMO-1. Put plainly: Soft agar colony formation assay, NOMO-1. The format is cell-based. Conditions: NOMO-1, 100 nM, 14 days, normalized to vehicle. How it is done: Cell lines were plated at a density of 1000 cells/ml in 0.35% agar over 0.5% agar base layer. […] Colonies were grown for 14 (NOMO-1, MV4;11, MOLM-13) or 21 days (Kasumi-1) prior to staining with 1 mg/ml nitrotetrazolium blue (Sigma-Aldrich). Treatment-containing medium was renewed twice weekly. […] Human mononuclear cells were isolated from umbilical cord blood samples using Ficoll-Paque PLUS (GE Healthcare Life Sciences). […] Cell line and patient sample colonies were counted using a GelCount colony counter (Oxford Optronix) and cord blood colonies were manually counted in a blinded, non-biased manner.

Test [2] relates to Kasumi-1 cell line. Put plainly: Apoptosis by flow cytometry (YO-PRO-1 iodide / propidium iodide), Kasumi-1. The conditions noted are these: Kasumi-1, 300 nM, 72 hour; vehicle 30 ± 7%. Background: In flow cytometry, cells or beads pass a laser one at a time.
Method: To assess apoptosis, AML cell lines were cultured at 3 × 10^5 cells, and 1 × 10^6 AML patient blasts were co-cultured with 3.5 × 10^5 HS27 cells per condition in 24 well plates, and treated for 72 hours. […] Flow cytometry data were analyzed using Modfit Cell Cycle Analysis software (Verity Software House). In replating assays, cells were similarly plated and treated, then harvested cells were washed twice, and 1.5 × 10^4 viable cells/ml were cultured in cRPMI for six days. Six days after replating, viable myeloblast count was determined by trypan blue exclusion using a Cedex XS Analyzer (Roche).

For the molecule `CCCCNc1ncc2c(-c3ccc(S(=O)(=O)N4CCOCC4)cc3)cn([C@H]3CC[C@H](O)CC3)c2n1` [UNC1666], the “Reduction in colony formation” value in test [1] is 71 ± 4%. In test [2], the “Cells apoptotic or dead” value is given as 76 ± 8%.
